How the values were obtained:
Type in all cases: in vivo, mouse
[1] = system: ADAMTS5, MMP13, Aggrecan Neo, aggrecan in tibial articular cartilage; assay: IF staining of tibial articular cartilage of drug-treated DMM mice; settings: for aggrecan expression (IF staining, whole tibial articular surface): daily ip week 8 to 12, versus vehicle; for ADAMTS5 expression (IF staining, uncalcified cartilage) / Aggrecan Neo expression (IF staining, uncalcified cartilage) / MMP13 expression (IF staining, uncalcified cartilage): daily treatment week 8 to 12
Protocol: Drug treatment studies: In twelve-week old male wild type C57BL/6 mice that received DMM surgeries, vehicle (PBS), paroxetine (5 mg/kg/day), fluoxetine (5 mg/kg/day), gallein (10 mg/kg/day) or indomethacin (2.5 mg/kg/day) were administered daily by ip injection. Drug treatment was initiated 8 weeks following DMM to determine the role of GRK2 signaling in the progression of OA. Paraffin sections were deparaffinized in three changes of xylene for five minutes each, rehydrated in ethanol (two changes of 100% ethanol, followed by two changes of 95% ethanol, followed by one change of 70% ethanol) and rinsed twice in deionized water. Antigen retrieval was performed for 30 minutes at 37° C. using 0.4% pepsin (Sigma P-7000) in 0.1M hydrochloric acid (HCl) and was followed by permeabilization for 30 minutes at room temperature using Triton X in tris buffered saline (TBS). Sections were then blocked for 1 hour at room temperature in 10% normal goat serum in 1×TBS. Tissue sections were incubated overnight at 4° C. with the rabbit anti-mouse primary antibody specific for the target protein (detailed in Table 1). Following three 5-minute washes in 1×TBS, slides were incubated for 1 hour at room temperature with biotinylated goat anti-rabbit secondary antibody (Life Technologies, Waltham, MA, USA), washed again with 3 changes of 1×TBS and incubated for 1 hour at room temperature with Alexa fluor 647 Streptavidin. Finally, slides were washed with three changes of 1×TBS for 5 minutes each, followed by one wash with 1×TBS with tween 20 (TBST), and a final 5-minute wash in 1×TBS. Mounting and nuclear staining was performed using ProLong™ Gold antifade reagent with DAPI (Invitrogen, Waltham, MA, USA).

[2] = system: DMM mice; assay: Anterior femoral synovial membrane thickness in DMM mice; settings: daily ip week 8 to 12, versus vehicle
Protocol: Drug treatment studies: In twelve-week old male wild type C57BL/6 mice that received DMM surgeries, vehicle (PBS), paroxetine (5 mg/kg/day), fluoxetine (5 mg/kg/day), gallein (10 mg/kg/day) or indomethacin (2.5 mg/kg/day) were administered daily by ip injection. Drug treatment was initiated 8 weeks following DMM to determine the role of GRK2 signaling in the progression of OA. Using Safranin-O/Fast Green-stained sections, the OsteoMetrics system was used to quantify the above parameters on three sections from representative levels (50 μm apart) of the medial compartment of the joint for each sample. Live images of the center of the knee joint were collected through an Olympus microscope (10× objective) outfitted with a camera, a stylus was used to trace the regions of interest (ROIs). A blinded observer quantified uncalcified articular cartilage area, total chondrocyte number and matrix-producing chondrocyte number using the built-in area calculation algorithms and quantification functions of the OsteoMeasure® system. […] The calcified cartilage was determined with a line drawn along the tide mark, which is the naturally occurring line separating the calcified and uncalcified regions of the articular cartilage. A second line was drawn at the chondro-osseous junction where the calcified cartilage meets the subchondral bone. The uncalcified cartilage area was determined by subtracting the calcified cartilage area from the total area of cartilage. Total chondrocyte number and matrix-producing chondrocyte number were counted within the uncalcified cartilage region using count functions within the histomorphometry system. Matrix-producing chondrocytes were counted based on the region of Safranin-O staining within the extracellular matrix surrounding the articular chondrocyte, indicating anabolic signaling to maintain matrix homeostasis. Similarly, the anterior femoral synovial thickness was measured using OsteoMeasure® software. Synovial membrane thickness extending from anterior horn of the medial meniscus to the femur was determined by drawing a line from the inner insertion point on the femur towards the attachment on the meniscus. A second line was drawn from the outer insertion of the femur towards the attachment to the meniscus. The synovial thickness was calculated by dividing total synovial area by synovial perimeter.

[3] = system: DMM mice; assay: Micro-CT assessment of knee joint and subchondral bone in DMM mice; settings: daily ip week 8 to 12
Protocol: Drug treatment studies: In twelve-week old male wild type C57BL/6 mice that received DMM surgeries, vehicle (PBS), paroxetine (5 mg/kg/day), fluoxetine (5 mg/kg/day), gallein (10 mg/kg/day) or indomethacin (2.5 mg/kg/day) were administered daily by ip injection. Drug treatment was initiated 8 weeks following DMM to determine the role of GRK2 signaling in the progression of OA. Prior to histologic processing, harvested knee joints were evaluated via micro-CT using a Scanco vivaCT40 scanner with a 55 kVp source as we have previously described. Joints were scanned at a resolution of 10.5 μm. General 3-dimensional images were obtained with simple segmentation at a Scanco threshold of 260, which was determined on inspection of the first specimen. This translates to a linear attenuation coefficient of 2.080 cm-1. Knee analysis starts by locating the highest section of the tibial plateau and defining that as the center point. All bone is captured 100 slices in each direction from the center point. The patella and fibula, if present in that region, are excluded. The fabellae are considered part of the knee and are included. A threshold of 260 (2.080 cm′) is used to analyze bone volume and microarchitecture. Tibia subchondral analysis begins by starting at the knee and proceeding distally until the cortical shell is penetrated. All non-cortical bone is included, both solid and trabecular. Osteophytes were identified as protrusions and counted using cross-sectional images of the 3-dimensional stacks. Subchondral plate thickness was calculated by determining the number of cross-sections forming the subchondral plate and multiplying it by section thickness (C. Huesa, Annals of the rheumatic diseases, 75, 1989-1997 (2016)).

Row | Structure (SMILES) | aggrecan expression (IF staining, whole tibial articular surface) [1] | ADAMTS5 expression (IF staining, uncalcified cartilage) [1] | Aggrecan Neo expression (IF staining, uncalcified cartilage) [1] | MMP13 expression (IF staining, uncalcified cartilage) [1] | synovial membrane thickness [2] | higher osteophyte number [3] | higher subchondral bone mineral density (BMD) [3] | higher subchondral bone volume density (BV/TV) [3] | higher subchondral plate thickness [3] | higher subchondral trabecular thickness (Tb.Th) [3] | increased knee bone volume (BV) [3] | increased knee total volume (TV) [3]
1 | O=C1OC2(c3ccccc31)c1ccc(O)c(O)c1Oc1c2ccc(O)c1O [gallein] | enhanced | significantly decreased | significantly decreased | significantly decreased | as effective as indomethacin | alleviated | alleviated | alleviated | alleviated | alleviated | ameliorated | ameliorated
2 | Fc1ccc([C@@H]2CCNC[C@H]2COc2ccc3c(c2)OCO3)cc1 [paroxetine] | enhanced | significantly decreased | significantly decreased | significantly decreased | as effective as indomethacin | alleviated | alleviated | alleviated | alleviated | alleviated | ameliorated | ameliorated

Source: US20230404989A1, “GRK2 INHIBITION BY PAROXETINE AMELIORATES OSTEOARTHRITIS” (THE PENN STATE RESEARCH FOUNDATION, priority 2020, published 2023)
